# Results: patent US11192877B2, “3-(5-hydroxy-1-oxoisoindolin-2-yl)piperidine-2,6-dione derivatives and uses thereof” (Novartis AG, priority 2018, dated 2021)
# Target: IKZF2 (Helios) (Homo sapiens, UniProt Q96SW2+Q9UKS7)
# Assay: Prolabel quantification of IKZF2 protein levels in 293GT cells
# Format: cell-based
# Details: 24 h, Pro-label assay, 293GT cells, 10 μM, read-out: IKZF2 % protein reduction at 10 μM, 24 h
# Sequence of IKZF2 (Helios) (Q9UKS7 whole entry): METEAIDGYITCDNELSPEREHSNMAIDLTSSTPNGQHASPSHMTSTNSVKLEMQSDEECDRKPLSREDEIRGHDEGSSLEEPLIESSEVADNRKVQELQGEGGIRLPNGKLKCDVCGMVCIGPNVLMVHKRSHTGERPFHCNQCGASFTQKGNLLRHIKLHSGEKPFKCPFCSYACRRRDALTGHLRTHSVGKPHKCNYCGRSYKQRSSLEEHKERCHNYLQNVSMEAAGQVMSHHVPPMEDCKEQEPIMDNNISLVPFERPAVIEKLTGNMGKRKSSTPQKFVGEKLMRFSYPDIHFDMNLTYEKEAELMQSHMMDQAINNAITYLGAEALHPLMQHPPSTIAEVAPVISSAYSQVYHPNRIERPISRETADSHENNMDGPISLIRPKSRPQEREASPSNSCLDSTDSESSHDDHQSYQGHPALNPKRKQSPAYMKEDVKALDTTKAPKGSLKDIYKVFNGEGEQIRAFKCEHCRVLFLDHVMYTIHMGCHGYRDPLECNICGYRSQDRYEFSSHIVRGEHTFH
# Sequence of IKZF2 (Helios) (Q96SW2 whole entry): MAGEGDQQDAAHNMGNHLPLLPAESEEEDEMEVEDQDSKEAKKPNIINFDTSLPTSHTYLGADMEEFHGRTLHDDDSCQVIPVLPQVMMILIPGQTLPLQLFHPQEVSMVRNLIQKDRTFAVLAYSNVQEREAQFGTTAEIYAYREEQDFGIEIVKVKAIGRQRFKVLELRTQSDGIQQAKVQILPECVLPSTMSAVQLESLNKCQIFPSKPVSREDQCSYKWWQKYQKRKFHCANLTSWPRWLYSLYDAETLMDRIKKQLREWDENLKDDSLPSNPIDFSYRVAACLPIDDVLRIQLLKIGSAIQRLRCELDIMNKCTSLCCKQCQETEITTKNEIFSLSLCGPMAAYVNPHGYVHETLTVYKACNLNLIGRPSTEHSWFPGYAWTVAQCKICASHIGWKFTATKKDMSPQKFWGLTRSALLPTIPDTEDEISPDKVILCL
# Sequence of IKZF2 (Helios) (Q16531 whole entry partner): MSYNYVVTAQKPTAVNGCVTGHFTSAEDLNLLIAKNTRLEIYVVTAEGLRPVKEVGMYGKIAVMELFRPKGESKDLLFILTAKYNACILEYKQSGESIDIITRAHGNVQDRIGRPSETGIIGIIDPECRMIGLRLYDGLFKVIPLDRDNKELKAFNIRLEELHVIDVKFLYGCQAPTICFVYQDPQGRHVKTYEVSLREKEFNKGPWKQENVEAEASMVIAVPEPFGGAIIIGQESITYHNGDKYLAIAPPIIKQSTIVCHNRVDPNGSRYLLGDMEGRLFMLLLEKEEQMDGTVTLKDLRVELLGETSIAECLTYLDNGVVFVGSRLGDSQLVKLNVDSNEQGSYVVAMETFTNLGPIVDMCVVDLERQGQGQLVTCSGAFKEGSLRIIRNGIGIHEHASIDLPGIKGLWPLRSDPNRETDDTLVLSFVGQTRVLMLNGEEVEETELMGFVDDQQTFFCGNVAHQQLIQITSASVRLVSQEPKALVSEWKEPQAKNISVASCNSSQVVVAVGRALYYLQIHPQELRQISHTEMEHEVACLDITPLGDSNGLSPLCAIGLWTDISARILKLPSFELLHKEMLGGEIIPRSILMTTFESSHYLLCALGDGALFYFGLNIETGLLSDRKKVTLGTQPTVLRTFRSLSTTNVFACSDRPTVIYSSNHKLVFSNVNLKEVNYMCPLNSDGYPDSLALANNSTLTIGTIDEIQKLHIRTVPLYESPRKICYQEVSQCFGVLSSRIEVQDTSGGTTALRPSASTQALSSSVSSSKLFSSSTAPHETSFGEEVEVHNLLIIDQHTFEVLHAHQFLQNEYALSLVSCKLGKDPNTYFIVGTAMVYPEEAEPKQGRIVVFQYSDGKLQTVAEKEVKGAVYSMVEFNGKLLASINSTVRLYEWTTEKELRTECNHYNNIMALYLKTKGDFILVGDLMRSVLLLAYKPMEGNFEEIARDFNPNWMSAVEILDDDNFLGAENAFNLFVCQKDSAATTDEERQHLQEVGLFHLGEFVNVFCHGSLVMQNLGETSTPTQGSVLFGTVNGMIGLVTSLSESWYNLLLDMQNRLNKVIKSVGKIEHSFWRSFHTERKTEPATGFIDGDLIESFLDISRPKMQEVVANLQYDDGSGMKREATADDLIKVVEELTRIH
row,IKZF2 % protein reduction at 10 µM,SMILES
1,82%,"COC1CN([C@H]2CCCC[C@@H]2Oc2ccc3c(c2)CN(C2CCC(=O)NC2=O)C3=O)C1 (stereo partly drawn) [I-89, 3-(5-(((1S,2S)-2-(3-methoxyazetidin-1-yl)cyclohexyl)oxy)-1-oxoisoindolin-2-yl)piperidine-2,6-dione]"
2,58%,"COc1ccc(CN[C@H]2CCCC[C@@H]2Oc2ccc3c(c2)CN(C2CCC(=O)NC2=O)C3=O)nc1 (stereo partly drawn) [I-91, 3-(5-(((1S,2S)-2-(((5-methoxypyridin-2-yl)methyl)amino)cyclohexyl)oxy)-1-oxoisoindolin-2-yl)piperidine-2,6-dione]"
3,60%,"COc1ccc(CN[C@H]2CCCC[C@@H]2Oc2ccc3c(c2)CN(C2CCC(=O)NC2=O)C3=O)cn1 (stereo partly drawn) [I-92, 3-(5-(((1S,2S)-2-(((6-methoxypyridin-3-yl)methyl)amino)cyclohexyl)oxy)-1-oxoisoindolin-2-yl)piperidine-2,6-dione]"
4,60%,"CC(C)(O)CN[C@H]1CCCC[C@@H]1Oc1ccc2c(c1)CN(C1CCC(=O)NC1=O)C2=O (stereo partly drawn) [I-93, 3-(5-(((1S,2S)-2-((2-hydroxy-2-methylpropyl)amino)cyclohexyl)oxy)-1-oxoisoindolin-2-yl)piperidine-2,6-dione]"
5,84%,"CC1(C#N)CC(CNC2CCCCC2Oc2ccc3c(c2)CN(C2CCC(=O)NC2=O)C3=O)C1 [I-95, (1R,3s)-3-((((1S,2S)-2-((2-(2,6-dioxopiperidin-3-yl)-1-oxoisoindolin-5-yl)oxy)cyclohexyl)amino)methyl)-1-methylcyclobutane-1-carbonitrile]"
6,81%,"O=C1CCC(N2Cc3cc(O[C@H]4CCC[C@@H]4N4CCC(O)CC4)ccc3C2=O)C(=O)N1 (stereo partly drawn) [I-96, 3-(5-(((1S,2S)-2-(4-hydroxypiperidin-1-yl)cyclopentyl)oxy)-1-oxoisoindolin-2-yl)piperidine-2,6-dione]"
7,36%,"O=C1CCC(N2Cc3cc(O[C@H]4CCCC[C@@H]4N4CCCCC4)ccc3C2=O)C(=O)N1 (stereo partly drawn) [I-97, 3-(1-oxo-5-(((1S,2S)-2-(piperidin-1-yl)cyclohexyl)oxy)isoindolin-2-yl)piperidine-2,6-dione]"
8,80%,"O=C1CCC(N2Cc3cc(O[C@H]4CCCC[C@@H]4NCC4CCOCC4)ccc3C2=O)C(=O)N1 (stereo partly drawn) [I-98, 3-(1-oxo-5-(((1S,2S)-2-(((tetrahydro-2H-pyran-4-yl)methyl)amino)cyclohexyl)oxy)isoindolin-2-yl)piperidine-2,6-dione]"
9,73%,"CO[C@H]1CC[C@H](CN[C@H]2CCCC[C@@H]2Oc2ccc3c(c2)CN(C2CCC(=O)NC2=O)C3=O)CC1 (stereo partly drawn) [I-101, 3-(5-(((1S,2S)-2-((((1r,4S)-4-methoxycyclohexyl)methyl)amino)cyclohexyl)oxy)-1-oxoisoindolin-2-yl)piperidine-2,6-dione]"
10,73%,"CC1(CN[C@H]2CCCC[C@@H]2Oc2ccc3c(c2)CN(C2CCC(=O)NC2=O)C3=O)CCOCC1 (stereo partly drawn) [I-102, 3-(5-(((1S,2S)-2-(((4-methyltetrahydro-2H-pyran-4-yl)methyl)amino)cyclohexyl)oxy)-1-oxoisoindolin-2-yl)piperidine-2,6-dione]"
11,54%,"O=C1CCC(N2Cc3cc(O[C@H]4CCCC[C@@H]4NCc4cncnc4)ccc3C2=O)C(=O)N1 (stereo partly drawn) [I-103, 3-(1-oxo-5-(((1S,2S)-2-((pyrimidin-5-ylmethyl)amino)cyclohexyl)oxy)isoindolin-2-yl)piperidine-2,6-dione]"
12,87%,"O=C1CCC(N2Cc3cc(O[C@H]4CCCC[C@@H]4NCCC4CCOCC4)ccc3C2=O)C(=O)N1 (stereo partly drawn) [I-104, 3-(1-oxo-5-(((1S,2S)-2-((2-(tetrahydro-2H-pyran-4-yl)ethyl)amino)cyclohexyl)oxy)isoindolin-2-yl)piperidine-2,6-dione]"
13,52%,"O=C1CCC(N2Cc3cc(O[C@H]4CCCC[C@@H]4N4CCC5(CC4)COC5)ccc3C2=O)C(=O)N1 (stereo partly drawn) [I-105, 3-(5-(((1S,2S)-2-(2-oxa-7-azaspiro[3.5]nonan-7-yl)cyclohexyl)oxy)-1-oxoisoindolin-2-yl)piperidine-2,6-dione]"
14,51%,"COC1(CN[C@H]2CCCC[C@@H]2Oc2ccc3c(c2)CN(C2CCC(=O)NC2=O)C3=O)CCOCC1 (stereo partly drawn) [I-106, 3-(5-(((1S,2S)-2-(((4-methoxytetrahydro-2H-pyran-4-yl)methyl)amino)cyclohexyl)oxy)-1-oxoisoindolin-2-yl)piperidine-2,6-dione]"
15,89%,"CC1(C)CC(CN[C@H]2CCCC[C@@H]2Oc2ccc3c(c2)CN(C2CCC(=O)NC2=O)C3=O)CCO1 (stereo partly drawn) [I-107, 3-(5-(((1S,2S)-2-(((2,2-dimethyltetrahydro-2H-pyran-4-yl)methyl)amino)cyclohexyl)oxy)-1-oxoisoindolin-2-yl)piperidine-2,6-dione]"
16,89%,"O=C1CCC(N2Cc3cc(O[C@H]4CCCC[C@@H]4NC4CC5(CCOCC5)C4)ccc3C2=O)C(=O)N1 (stereo partly drawn) [I-110, 3-(5-(((1S,2S)-2-((7-oxaspiro[3.5]nonan-2-yl)amino)cyclohexyl)oxy)-1-oxoisoindolin-2-yl)piperidine-2,6-dione]"
17,59%,"N#CC1(CN[C@H]2CCCC[C@@H]2Oc2ccc3c(c2)CN(C2CCC(=O)NC2=O)C3=O)CCC1 (stereo partly drawn) [I-111, 1-((((1S,2S)-2-((2-(2,6-dioxopiperidin-3-yl)-1-oxoisoindolin-5-yl)oxy)cyclohexyl)amino)methyl)cyclobutane-1-carbonitrile]"
18,95%,"O=C1CCC(N2Cc3cc(O[C@H]4CCCC[C@@H]4N4CC(Oc5ccccc5Cl)C4)ccc3C2=O)C(=O)N1 (stereo partly drawn) [I-112, 3-(5-(((1S,2S)-2-(3-(2-chlorophenoxy)azetidin-1-yl)cyclohexyl)oxy)-1-oxoisoindolin-2-yl)piperidine-2,6-dione]"

# More lines, now with the values behind:
row,SMILES,IKZF2 % protein reduction at 10 µM
1,"O=C1CCC(N2Cc3cc(O[C@H]4CCCC[C@@H]4NCc4cccnc4)ccc3C2=O)C(=O)N1 (stereo partly drawn) [I-75, 3-(1-oxo-5-(((1S,2S)-2-((pyridin-3-ylmethyl)amino)cyclohexyl)oxy)isoindolin-2-yl)piperidine-2,6-dione]",79%
2,"CC(C)n1cc(CN[C@H]2CCCC[C@@H]2Oc2ccc3c(c2)CN(C2CCC(=O)NC2=O)C3=O)cn1 (stereo partly drawn) [I-77, 3-(5-(((1S,2S)-2-(((1-isopropyl-1H-pyrazol-4-yl)methyl)amino)cyclohexyl)oxy)-1-oxoisoindolin-2-yl)piperidine-2,6-dione]",86%
3,"CCN(C)[C@H]1CCCC[C@@H]1Oc1ccc2c(c1)CN(C1CCC(=O)NC1=O)C2=O (stereo partly drawn) [I-78, 3-(5-(((1S,2S)-2-(ethyl(methyl)amino)cyclohexyl)oxy)-1-oxoisoindolin-2-yl)piperidine-2,6-dione]",50%
4,"CCN[C@H]1CCCC[C@@H]1Oc1ccc2c(c1)CN(C1CCC(=O)NC1=O)C2=O (stereo partly drawn) [I-79, 3-(5-(((1S,2S)-2-(ethylamino)cyclohexyl)oxy)-1-oxoisoindolin-2-yl)piperidine-2,6-dione]",85%
5,"CN(C)[C@H]1CCCC[C@@H]1Oc1ccc2c(c1)CN(C1CCC(=O)NC1=O)C2=O (stereo partly drawn) [I-80, 3-(5-(((1S,2S)-2-(dimethylamino)cyclohexyl)oxy)-1-oxoisoindolin-2-yl)piperidine-2,6-dione]",65%
6,"O=C1CCC(N2Cc3cc(O[C@H]4CCCC[C@@H]4NCC4COC4)ccc3C2=O)C(=O)N1 (stereo partly drawn) [I-81, 3-(5-(((1S,2S)-2-((oxetan-3-ylmethyl)amino)cyclohexyl)oxy)-1-oxoisoindolin-2-yl)piperidine-2,6-dione]",85%
7,"O=C1CCC(N2Cc3cc(O[C@H]4CCCC[C@@H]4NCCO)ccc3C2=O)C(=O)N1 (stereo partly drawn) [I-82, 3-(5-(((1S,2S)-2-((2-hydroxyethyl)amino)cyclohexyl)oxy)-1-oxoisoindolin-2-yl)piperidine-2,6-dione]",58%
8,"O=C1CCC(N2Cc3cc(O[C@H]4CCCC[C@@H]4N4CCCC4)ccc3C2=O)C(=O)N1 (stereo partly drawn) [I-83, 3-(1-oxo-5-(((1S,2S)-2-(pyrrolidin-1-yl)cyclohexyl)oxy)isoindolin-2-yl)piperidine-2,6-dione]",86%
9,"O=C1CCC(N2Cc3cc(O[C@H]4CCCC[C@@H]4N4CCOCC4)ccc3C2=O)C(=O)N1 (stereo partly drawn) [I-84, 3-(5-(((1S,2S)-2-morpholinocyclohexyl)oxy)-1-oxoisoindolin-2-yl)piperidine-2,6-dione]",35%
10,"O=C1CCC(N2Cc3cc(O[C@H]4CCCC[C@@H]4NCc4ccccn4)ccc3C2=O)C(=O)N1 (stereo partly drawn) [I-85, 3-(1-oxo-5-(((1S,2S)-2-((pyridin-2-ylmethyl)amino)cyclohexyl)oxy)isoindolin-2-yl)piperidine-2,6-dione]",69%
11,"CC(C)(O)CCN[C@H]1CCCC[C@@H]1Oc1ccc2c(c1)CN(C1CCC(=O)NC1=O)C2=O (stereo partly drawn) [I-86, 3-(5-(((1S,2S)-2-((3-hydroxy-3-methylbutyl)amino)cyclohexyl)oxy)-1-oxoisoindolin-2-yl)piperidine-2,6-dione]",76%
12,"CC1(CN[C@H]2CCCC[C@@H]2Oc2ccc3c(c2)CN(C2CCC(=O)NC2=O)C3=O)COC1 (stereo partly drawn) [I-87, 3-(5-(((1S,2S)-2-(((3-methyloxetan-3-yl)methyl)amino)cyclohexyl)oxy)-1-oxoisoindolin-2-yl)piperidine-2,6-dione]",79%
13,"COC1(C)CCN([C@H]2CCCC[C@@H]2Oc2ccc3c(c2)CN(C2CCC(=O)NC2=O)C3=O)CC1 (stereo partly drawn) [I-88, 3-(5-(((1S,2S)-2-(4-methoxy-4-methylpiperidin-1-yl)cyclohexyl)oxy)-1-oxoisoindolin-2-yl)piperidine-2,6-dione]",57%

# Same assay, conditions: 24 h, read-out: IKZF2 % protein reduction at 10 μM, 24 h
row,SMILES,IKZF2 % protein reduction at 10 µM
1,"CCn1cc(CN[C@H]2CCCC[C@@H]2Oc2ccc3c(c2)CN(C2CCC(=O)NC2=O)C3=O)cn1 (stereo partly drawn) [I-76, 3-(5-(((1S,2S)-2-(((1-ethyl-1H-pyrazol-4-yl)methyl)amino)cyclohexyl)oxy)-1-oxoisoindolin-2-yl)piperidine-2,6-dione]",79%
2,"Cc1cccc(CN[C@H]2CCCC[C@@H]2Oc2ccc3c(c2)CN(C2CCC(=O)NC2=O)C3=O)n1 (stereo partly drawn) [I-90, 3-(5-(((1S,2S)-2-(((6-methylpyridin-2-yl)methyl)amino)cyclohexyl)oxy)-1-oxoisoindolin-2-yl)piperidine-2,6-dione]",57%
